Results as given in US6645983B1, “Pharmaceutical compositions comprising 4-quinolones for treating cancers” (Laboratoire L. Lafon, priority 1999, dated 2003).
Where two headings read alike, the source gives them in different places. One block for each molecule: values may come before it.

What was measured:
A-427 = assay: MTT test, cytotoxic activity on non-clonogenic cell lines; format: cell-based; conditions: Homo sapiens, 10^−5 M, mean value
Method in brief: (§1)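 Compounds span 10^−5 to 10^−10 M, with solvent-treated wells as control, and the formazan is quantified by absorbance after DMSO solubilization.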

A549 = assay: as above; format: cell-based; conditions: Homo sapiens, 10^−5 M, mean value
Method in brief: as §1

HCT-15 [1] = assay: as above; format: cell-based; conditions: Homo sapiens, mean value
Method in brief: as §1

LoVo = assay: as above; format: cell-based; conditions: Homo sapiens, 10^−5 M, mean value
Method in brief: as §1

MCF7 = assay: as above; format: cell-based; conditions: Homo sapiens, 10^−5 M, mean value
Method in brief: as §1

PC-3 = assay: as above; format: cell-based; conditions: Homo sapiens, 10^−5 M, mean value
Method in brief: as §1

T-47D = assay: as above; format: cell-based; conditions: Homo sapiens, T47D, 10^−5 M, mean value
Method in brief: as §1

U-373MG = assay: as above; format: cell-based; conditions: Homo sapiens, U373 MG, 10^−5 M, mean value
Method in brief: as §1

U-87MG = assay: as above; format: cell-based; conditions: Homo sapiens, 10^−5 M, mean value
Method in brief: as §1

SW1088 = assay: as above; format: cell-based; conditions: Homo sapiens, 10^−5 M, mean value
Method in brief: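 Human astrocytoma SW1088 cells seeded, grown 24 h at 37° C, 5% CO2, then exposed to compounds at 10^−5 to 10^−10 M versus solvent control. Viability by MTT reduction: 3 h MTT incubation, formazan dissolved in DMSO and read by spectrophotometry.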

J82 = assay: as above; format: cell-based; conditions: Homo sapiens, 10^−5 M, mean value
Method in brief: (§2)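 Human bladder cancer lines were seeded at 20 000–50 000 cells/ml and, after 24 h, exposed to compounds at 10^−5 to 10^−10 M against a solvent control. Formazan was dissolved in DMSO and viability was read by spectrophotometric optical density.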

T24 = assay: as above; format: cell-based; conditions: Homo sapiens, T-24, 10^−5 M, mean value
Method in brief: as §2

HCT-15 [2] = test system: HCT-15
HCT-15 [3] = assay: cells; conditions: Homo sapiens, HCT-15, read-out: concentration that inhibits by 50% (IC50) the in vitro cell growth of the HCT-15 line
[4] = 72 hours of incubation, control condition = 100%, read-out: mean optical density as percentage of control, A-427
[5] = 72 hours of incubation, control condition = 100%, read-out: mean optical density as percentage of control, A549
[6] = 10^−5 M, 72 hours of incubation, control condition = 100%, read-out: mean optical density as percentage of control, HCT-16
[7] = 72 hours of incubation, control condition = 100%, read-out: mean optical density as percentage of control, LoVo
[8] = 72 hours of incubation, control condition = 100%, read-out: mean optical density as percentage of control, MCF7
[9] = 72 hours of incubation, control condition = 100%, read-out: mean optical density as percentage of control, PC-3
[10] = 72 hours of incubation, control condition = 100%, read-out: mean optical density as percentage of control, T-47D
[11] = 72 hours of incubation, control condition = 100%, read-out: mean optical density as percentage of control, U-373MG
[12] = U-87 MG, 72 hours of incubation, control condition = 100%, read-out: mean optical density as percentage of control, U-87MG
[13] = 72 hours of incubation, control condition = 100%, read-out: mean optical density as percentage of control, SW1088
[14] = 72 hours of incubation, control condition = 100%, read-out: mean optical density as percentage of control, J82
[15] = 72 hours of incubation, control condition = 100%, read-out: mean optical density as percentage of control, T24
[16] = 72 hours incubation, MTT, read-out: mean optical density, expressed as percentage relative to the mean optical density under the control condition (100%)

Structure (SMILES): COc1ccc(-c2cn(CCN(C)C)c3cc(OC)ccc3c2=O)cc1 [CRL8469, N-[3-(Dimethylamino)ethyl]-7-methoxy-3-(4-methoxyphenyl)-1,4-dihydro-4-quinolinone]
- viability at 10 µM (A-427; [16]): 102%
- viability at 10 µM (A549; [16]): 100%
- viability at 10 µM (HCT-15 [1]; HCT-16, 10^−5 M, 72 hours incubation, MTT, read-out: mean optical density, expressed as percentage relative to the mean optical density under the control condition (100%)): 101%
- viability at 10 µM (LoVo; [16]): 95.9%
- viability at 10 µM (MCF7; [16]): 97.6%
- viability at 10 µM (PC-3; [16]): 99.9%
- viability at 10 µM (T-47D; T-47D, 72 hours incubation, MTT, read-out: mean optical density, expressed as percentage relative to the mean optical density under the control condition (100%)): 103%
- viability at 10 µM (U-373MG; U-373MG, 72 hours incubation, MTT, read-out: mean optical density, expressed as percentage relative to the mean optical density under the control condition (100%)): 102%
- viability at 10 µM (U-87MG; U-87MG, 72 hours incubation, MTT, read-out: mean optical density, expressed as percentage relative to the mean optical density under the control condition (100%)): 108%
- viability at 10 µM (SW1088; [16]): 105%
- viability at 10 µM (J82; [16]): 89.5%
- viability at 10 µM (T24; T24, 72 hours incubation, MTT, read-out: mean optical density, expressed as percentage relative to the mean optical density under the control condition (100%)): 98.1%
- melting point: 142 to 143 °C

Structure (SMILES): CC(=O)Oc1ccc(-c2cn(C)c3cc(OC(C)=O)cc(OC(C)=O)c3c2=O)cc1 [CRL8513, 5,7-Diacetoxy-3-[4-(acetoxy)phenyl]-1-methyl-1,4-dihydro-4-quinolmone]
- melting point: 219 to 220 °C

Structure (SMILES): C=CCNc1cc(OC)cc2c1c(=O)c(-c1ccc(OC)cc1)cn2C [CRL8520, 5-Allylamino-7-methoxy-3-(4-methoxyphenyl)-1-methyl-1,4-dihydro-4-quinolinone]
- melting point: 154 to 155 °C

Structure (SMILES): COc1ccc(-c2cn(CC#N)c3cc(OC)ccc3c2=O)cc1 [CRL8522, [7-Methoxy-3-(4-methoxyphenyl)-4-oxo-1,4-dihydro-1-quinolinyl]acetonitrile]
- melting point: 206 to 207 °C

Structure (SMILES): CCN(CC)C(=O)CCn1cc(-c2ccc(OC)cc2)c(=O)c2ccc(OC)cc21 [CRL8525, N,N-Diethyl-3-[7-methoxy-3-(4-methoxyphenyl)-4-oxo-1,4-dihydro-1-quinolinyl]propanamide]
- melting point: 158 to 159 °C

Structure (SMILES): COc1cccc2c1C(=O)c1c(O)c3c(c(O)c1C2=O)C[C@@](O)(C(=O)CO)C[C@@H]3O[C@H]1C[C@H](N)[C@H](O)[C@H](C)O1 [adriamycin, reference compound]
- inhibition (HCT-15 [2]): 42.8%
- IC50 (HCT-15 [3]): 0.1 µM

Structure (SMILES): COc1cc([C@@H]2c3cc4c(cc3[C@@H](O[C@@H]3O[C@@H]5CO[C@@H](C)O[C@H]5[C@H](O)[C@H]3O)[C@H]3COC(=O)[C@H]23)OCO4)cc(OC)c1O [etoposide]
- IC50 (HCT-15 [3]): 1 µM

More lines, main results first:

- melting point: 69 to 70 °C
Structure (SMILES): COc1ccc(-c2cnc3c(OC)ccc(OC)c3c2OCCN(C)C)cc1 [CRL8370, N-{2-[5,8-Dimethoxy-3-(4-methoxyphenyl)-4-quinolyl]oxy}ethyl-N,N-dimethylamine]
- viability at 10 µM (A-427; [4]): 76%
- viability at 10 µM (A549; [5]): 85.6%
- viability at 10 µM (HCT-15 [1]; [6]): 103%
- viability at 10 µM (LoVo; [7]): 95.1%
- viability at 10 µM (MCF7; [8]): 88.5%
- viability at 10 µM (PC-3; [9]): 87.1%
- viability at 10 µM (T-47D; [10]): 88.5%
- viability at 10 µM (U-373MG; [11]): 105%
- viability at 10 µM (U-87MG; [12]): 104%
- viability at 10 µM (SW1088; [13]): 99.4%
- viability at 10 µM (J82; [14]): 102%
- viability at 10 µM (T24; [15]): 74.3%
- amplification compared with the activity of adriamycin alone (gain / activity alone) (HCT-15 [2]; 10^−5 M compound + 10^−7 M adriamycin, 15.2/42.8): about 35%

- melting point: 126 to 127 °C
Structure (SMILES): COc1ccc(-c2cn(CCCC#N)c3c(OC)ccc(OC)c3c2=O)cc1 [CRL8421, 4-[5,8-Dimethoxy-3-(4-methoxyphenyl)-4-oxo-1,4-dihydro-1-quinolinyl]butanenitrile]
- viability at 10 µM (A-427; [4]): 33%
- viability at 10 µM (A549; [5]): 97.5%
- viability at 10 µM (HCT-15 [1]; [6]): 50%
- viability at 10 µM (LoVo; [7]): 60.8%
- viability at 10 µM (MCF7; [8]): 49.5%
- viability at 10 µM (PC-3; [9]): 61.4%
- viability at 10 µM (T-47D; [10]): 83.5%
- viability at 10 µM (U-373MG; [11]): 81.7%
- viability at 10 µM (U-87MG; [12]): 29.9%
- viability at 10 µM (SW1088; [13]): 51%
- viability at 10 µM (J82; [14]): 47.1%
- viability at 10 µM (T24; [15]): 40.3%

- melting point: 126 to 127 °C
Structure (SMILES): COc1ccc(-c2cn(CCO)c3c(OC)ccc(OC)c3c2=O)cc1 [CRL8515, 1-(2-Hydroxyethyl)-5,8-dimethoxy-3-(4-methoxyphenyl)-1,4-dihydro-4-quinolinone]

- melting point: 124 to 125 °C
Structure (SMILES): COc1ccc(-c2cnc3c(OC)ccc(OC)c3c2OCCO)cc1 [CRL8516, 2-{[5,8-Dimethoxy-3-(4-methoxyphenyl)-4-quinolyl]oxy}-1-ethanol]

- melting point: 85 to 86 °C
Structure (SMILES): COc1ccc(-c2cn(CCOS(=O)(=O)c3ccc(C)cc3)c3c(OC)ccc(OC)c3c2=O)cc1 [CRL8517, 4-2-[5,8-Dimethoxy-3-(4-methoxyphenyl)-4-oxo-1,4-dihydro-1-quinolyl]ethyl p-Toluenesulfonate]

- melting point: 79 to 80 °C
Structure (SMILES): COc1ccc(-c2cn(CCC#N)c3c(OC)ccc(OC)c3c2=O)cc1 [CRL8518, 3-[5,8-Dimethoxy-3-(4-methoxyphenyl)-4-oxo-1,4-dihydro-1-quinolinyl]propanenitrile]

- melting point: 126 to 127 °C
Structure (SMILES): COc1ccc(-c2cnc3c(OC)ccc(OC)c3c2OCCCCC#N)cc1 [CRL8519, {[5,8-Dimethoxy-3-(4-methoxyphenyl)-4-quinolyl]oxy}pentanenitrile]

- melting point: 144 to 145 °C
Structure (SMILES): COc1ccc(CNc2cc(OC)cc3c2c(=O)c(-c2ccc(OC)cc2)cn3C)cc1 [CRL8521, 5-(4-Methoxybenzylamino)-7-methoxy-3-(4-methoxyphenyl)-1-methyl-1,4-dihydro-4-quinolinone]
